Data published in patent US11072591B2, “Tetrazole compounds and their use in the treatment of tuberculosis” (GLAXOSMITHKLINE INTELLECTUAL PROPERTY DEVELOPMENT LIMITED, priority 2017, dated 2021).
Values after ≈ are worked out from the molar mass of the structure shown.

test system: M. tuberculosis H37Rv; test: Mycobacterium tuberculosis H37Rv Inhibition Assay (Whole Cell Assay), MIC; type: cell-based; conditions: 144 h, M. tuberculosis H37Rv, Middlebrook 7H9 + ADC, 37° C. six days, resazurin readout, read-out: MIC_H37Rv

First: CCc1ccc(Cn2nnc(-c3ccc(S(=O)(=O)NCCO)cc3)n2)cc1 [Example 19]
Second: COc1ccc(Cn2nnc(-c3ccc(S(=O)(=O)NCCO)cc3)n2)cc1 [Example 6, N-(2-hydroxyethyl)-4-(2-(4-methoxybenzyl)-2H-tetrazol-5-yl)benzenesulfonamide]
The MIC of the first is higher: 1 to 5 µM for the first, < 0.1 µM for the second.

COc1cc(-c2nnn(Cc3ccc(C#N)cc3)n2)ccc1S(=O)(=O)NCCO [Example 49, 4-(2-(4-cyanobenzyl)-2H-tetrazol-5-yl)-N-(2-hydroxyethyl)-2-methoxybenzenesulfonamide] and COc1cc(-c2nnn(Cc3ccc(F)cc3)n2)ccc1S(=O)(=O)NCCO [Example 47, 4-(2-(4-fluorobenzyl)-2H-tetrazol-5-yl)-N-(2-hydroxyethyl)-2-methoxybenzenesulfonamide] cannot be ordered by MIC: < 0.1 µM for the first, < 0.1 µM for the second.

First: CNS(=O)(=O)c1ccc(-c2nnn(Cc3ccncc3)n2)cc1 [Example 4, N-methyl-4-(2-(pyridin-4-ylmethyl)-2H-tetrazol-5-yl)benzenesulfonamide]
Second: CCNS(=O)(=O)c1ccc(-c2nnn(Cc3ccncc3)n2)cc1 [Example 5, N-ethyl-4-(2-(pyridin-4-ylmethyl)-2H-tetrazol-5-yl)benzenesulfonamide]
The MIC of the first is lower: 1 to 5 µM for the first, 10 to 25 µM for the second.

O=S(=O)(NCCO)c1ccc(-c2cn(Cc3ccncc3)nn2)cc1 [Example 65] and O=S(=O)(NCCO)c1ccc(-c2nnn(Cc3ccncc3)n2)cc1 [Example 33] cannot be ordered by MIC: < 0.1 µM for the first, < 0.1 µM for the second.

NC(=O)CNS(=O)(=O)c1ccc(-c2nnn(Cc3ccncc3)n2)cc1 [Example 46, 2-(4-(2-(pyridin-4-ylmethyl)-2H-tetrazol-5-yl)phenylsulfonamido)acetamide] and C[C@@H](O)CNS(=O)(=O)c1ccc(-c2nnn(Cc3ccncc3)n2)cc1 [Example 12] cannot be ordered by MIC: < 0.1 µM for the first, < 0.1 µM for the second.

First: COc1cc(-c2nnn(CC3CCC(F)(F)CC3)n2)ccc1S(=O)(=O)NCC(N)=O [Example 95, 2-((4-(2-((4,4-difluorocyclohexyl)methyl)-2H-tetrazol-5-yl)-2-methoxyphenyl)sulfonamido)acetamide]
Second: O=S(=O)(NCCO)c1ccc(-c2nnn(CC3CCC(F)(F)CC3)n2)cc1 [Example 11]
The MIC of the first is higher: 1 to 5 µM for the first, < 0.1 µM for the second.

Compared with O=S(=O)(NCCO)c1ccc(-c2nnn(Cc3ncc(F)cc3F)n2)cc1 [Example 21], O=S(=O)(NCCO)c1ccc(-c2nnn(Cc3ccc(F)cn3)n2)cc1F [Example 75, 2-fluoro-4-(2-((5-fluoropyridin-2-yl)methyl)-2H-tetrazol-5-yl)-N-(2-hydroxyethyl) benzenesulfonamide] is lower in MIC: 1 to 5 µM for the first, < 0.1 µM for the second.

Cc1ccc(Cn2nnc(-c3ccc(S(=O)(=O)NC[C@@H](C)O)cc3)n2)nc1 [Example 27] and COc1ccc(Cn2nnc(-c3ccc(S(=O)(=O)NC[C@@H](C)O)cc3)n2)nc1 [Example 26] fall in the same range of MIC: 10 to 25 µM for the first, 10 to 25 µM for the second.

First: Cc1cc(Cn2nnc(-c3ccc(S(=O)(=O)NCC(N)=O)cc3)n2)ccn1 [Example 42]
Second: Cc1cc(Cn2nnc(-c3ccc(S(=O)(=O)NCCO)cc3)n2)ccn1 [Example 34]
The MIC of the first is lower: < 0.1 µM for the first, 1 to 5 µM for the second.

CNS(=O)(=O)c1ccc(-c2nnn(Cc3ccc(F)cc3)n2)cc1 [Example 3, 4-(2-(4-fluorobenzyl)-2H-tetrazol-5-yl)-N-methylbenzenesulfonamide] and C[C@H](O)CNS(=O)(=O)c1ccc(-c2nnn(Cc3ccc(F)cc3)n2)cc1 [Example 14] fall in the same range of MIC: 1 to 5 µM for the first, 1 to 5 µM for the second.

O=S(=O)(NC(CO)CO)c1ccc(-c2nnn(Cc3ccc(F)cc3)n2)cc1 [Example 15] and O=S(=O)(NC(CO)CO)c1ccc(-c2nnn(Cc3ccncc3)n2)cc1 [Example 16] fall in the same range of MIC: 5 to 10 µM for the first, 5 to 10 µM for the second.

Compared with COC(=O)CNS(=O)(=O)c1ccc(-c2nnn(Cc3ccc(F)cc3)n2)cc1 [Example 43], NC(=O)CNS(=O)(=O)c1ccc(-c2nnn(Cc3ccc(F)cn3)n2)cc1 [Example 38] is lower in MIC: 1 to 5 µM for the first, < 0.1 µM for the second.

Cc1cc(S(=O)(=O)NCCO)ccc1-c1nnn(Cc2ccc(F)cn2)n1 [Example 73, 4-(2-((5-fluoropyridin-2-yl)methyl)-2H-tetrazol-5-yl)-N-(2-hydroxyethyl)-3-methylbenzenesulfonamide] and O=S(=O)(NCCO)c1ccc(-c2nnn(Cc3ccc(F)cn3)n2)c(Cl)c1 [Example 81, 3-chloro-4-(2-((5-fluoropyridin-2-yl)methyl)-2H-tetrazol-5-yl)-N-(2-hydroxyethyl)benzenesulfonamide] cannot be ordered by MIC: < 0.1 µM for the first, < 0.1 µM for the second.

First: Cc1ccc(Cn2nnc(-c3ccc(S(=O)(=O)NCC(N)=O)cc3)n2)nc1 [Example 40]
Second: Cc1ccc(Cn2nnc(-c3ccc(S(=O)(=O)NCCO)cc3)n2)nc1 [Example 32]
The MIC of the first is lower: < 0.1 µM for the first, 1 to 5 µM for the second.

Cc1ccc(Cn2nnc(-c3ccc(S(=O)(=O)NCCO)cc3)n2)cn1 [Example 101, N-(2-hydroxyethyl)-4-(2-((6-methylpyridin-3-yl)methyl)-2H-tetrazol-5-yl)benzenesulfonamide] and O=S(=O)(NCCO)c1ccc(-c2nnn(Cc3cccnc3)n2)cc1 [Example 102, N-(2-hydroxyethyl)-4-(2-(pyridin-3-ylmethyl)-2H-tetrazol-5-yl)benzenesulfonamide] cannot be ordered by MIC: < 0.1 µM for the first, < 0.1 µM for the second.

First: CNS(=O)(=O)c1ccc(-c2nnn(Cc3ccncc3)n2)cc1OC [Example 51, 2-methoxy-N-methyl-4-(2-(pyridin-4-ylmethyl)-2H-tetrazol-5-yl)benzenesulfonamide]
Second: COc1cc(-c2nnn(Cc3ccncc3)n2)ccc1S(=O)(=O)NCC(N)=O [Example 55]
The MIC of the first is higher: 1 to 5 µM for the first, < 0.1 µM for the second.

Compared with O=S(=O)(NCCO)c1ccc(-c2nnn(CC3CCCCC3)n2)cc1 [Example 100, 4-(2-(cyclohexylmethyl)-2H-tetrazol-5-yl)-N-(2-hydroxyethyl)benzenesulfonamide], O=S(=O)(NCCO)c1ccc(-c2nnn(CC3CCOCC3)n2)cc1 [Example 105, N-(2-hydroxyethyl)-4-(2-((tetrahydro-2H-pyran-4-yl)methyl)-2H-tetrazol-5-yl)benzenesulfonamide] is higher in MIC: < 0.1 µM for the first, 1 to 5 µM for the second.

N#CCNS(=O)(=O)c1ccc(-c2nnn(CC3CCOCC3)n2)cc1 [Example 89, N-(cyanomethyl)-4-(2-((tetrahydro-2H-pyran-4-yl)methyl)-2H-tetrazol-5-yl)benzenesulfonamide] and O=S(=O)(NCCO)c1ccc(-c2nnn(CC3CCCCO3)n2)cc1 (racemic) [Example 7, N-(2-hydroxyethyl)-4-(2-((tetrahydro-2H-pyran-2-yl)methyl)-2H-tetrazol-5-yl)benzenesulfonamide] cannot be ordered by MIC: < 0.1 µM for the first, < 0.1 µM for the second.

First: O=S(=O)(NCCO)c1ccc(-c2nnn(CC3CCCCC3)n2)cc1F [Example 79, 4-(2-(cyclohexylmethyl)-2H-tetrazol-5-yl)-2-fluoro-N-(2-hydroxyethyl)benzenesulfonamide]
Second: COc1cc(-c2nnn(Cc3ccc(F)cn3)n2)ccc1S(=O)(=O)NCCO [Example 50, 4-(2-((5-fluoropyridin-2-yl)methyl)-2H-tetrazol-5-yl)-N-(2-hydroxyethyl)-2-methoxybenzenesulfonamide]
The MIC of the first is lower: < 0.1 µM for the first, 1 to 5 µM for the second.

Compared with N#CCNS(=O)(=O)c1ccc(-c2nnn(Cc3ccncn3)n2)cc1 [Example 58], O=S(=O)(NCCO)c1ccc(-c2nnn(Cc3ccncn3)n2)cc1 [Example 2, N-(2-hydroxyethyl)-4-(2-(pyrimidin-4-ylmethyl)-2H-tetrazol-5-yl)benzenesulfonamide] is higher in MIC: < 0.1 µM for the first, 1 to 5 µM for the second.

First: Cc1nccc(Cn2nnc(-c3ccc(S(=O)(=O)NCCO)cc3)n2)n1 [Example 23]
Second: Cc1cccc(Cn2nnc(-c3ccc(S(=O)(=O)NCCO)cc3)n2)n1 [Example 22]
The MIC of the first is lower: 5 to 10 µM for the first, 10 to 25 µM for the second.

Compared with COc1ccc(Cn2cc(-c3ccc(S(=O)(=O)NCCO)cc3)nn2)cc1 [Example 63], Cc1ccc(Cn2cc(-c3ccc(S(=O)(=O)NCCO)cc3)nn2)nc1 [Example 67] is higher in MIC: < 0.1 µM for the first, 10 to 25 µM for the second.

NC(=O)CNS(=O)(=O)c1ccc(-c2cn(CC3CCC(F)(F)CC3)nn2)cc1 [Example 69] and O=S(=O)(NCCO)c1ccc(-c2cn(Cc3ccc(F)cn3)nn2)cc1 [Example 62, (4-(1-((5-fluoropyridin-2-yl)methyl)-1H-1,2,3-triazol-4-yl)-N-(2-hydroxyethyl)benzenesulfonamide)] fall in the same range of MIC: 1 to 5 µM for the first, 1 to 5 µM for the second.

O=S(=O)(NCCO)c1ccc(-c2nnn(Cc3ccc(Cl)cn3)n2)cc1 [Example 18, 4-(2-((5-chloropyridin-2-yl)methyl)-2H-tetrazol-5-yl)-N-(2-hydroxyethyl)benzenesulfonamide] and COc1ccc(Cn2nnc(-c3ccc(S(=O)(=O)NCCO)cc3)n2)cc1F [Example 30] cannot be ordered by MIC: < 0.1 µM for the first, < 0.1 µM for the second.

COc1ccc(Cn2nnc(-c3ccc(S(=O)(=O)NCC#N)cc3)n2)cn1 [Example 93, N-(cyanomethyl)-4-(2-((6-methoxypyridin-3-yl)methyl)-2H-tetrazol-5-yl)benzenesulfonamide] and N#CCNS(=O)(=O)c1ccc(-c2cn(Cc3ccc(F)cn3)nn2)cc1 [Example 61] cannot be ordered by MIC: < 0.1 µM for the first, < 0.1 µM for the second.

In the case of COc1ccc(Cn2nnc(-c3ccc(S(=O)(=O)NCCO)c(OC)c3)n2)nc1 [Example 109, N-(2-hydroxyethyl)-2-methoxy-4-(2-((5-methoxypyridin-2-yl)methyl)-2H-tetrazol-5-yl)benzenesulfonamide], the MIC is reported as 1 to 5 µM.

same assay, conditions: M. tuberculosis H37Rv whole cell assay, value from repeated testing of the compound, read-out: MIC

Going from COc1cc(-c2nnn(Cc3ccc(F)cc3)n2)ccc1S(=O)(=O)NCC(N)=O [Example 53, 2-(4-(2-(4-fluorobenzyl)-2H-tetrazol-5-yl)-2-methoxyphenylsulfonamido)acetamide] to O=S(=O)(NCCO)c1ccc(-c2nnn(Cc3ccc(F)cn3)n2)cc1F [Example 75, 2-fluoro-4-(2-((5-fluoropyridin-2-yl)methyl)-2H-tetrazol-5-yl)-N-(2-hydroxyethyl) benzenesulfonamide], the MIC rises from 0.04 µM (≈ 0.0168 µg/mL) to 0.16 µM (≈ 0.0634 µg/mL) (4-fold).

First: C[C@@H](c1ccc(F)cn1)n1nnc(-c2ccc(S(=O)(=O)NCCO)cc2)n1 [Example 111 (S-isomer), (S)-4-(2-(1-(5-fluoropyridin-2-yl)ethyl)-2H-tetrazol-5-yl)-N-(2-hydroxyethyl)benzenesulfonamide]
Second: O=S(=O)(NCCO)c1c(F)cc(-c2nnn(Cc3ccc(F)cn3)n2)cc1F [Example 87, 2,6-difluoro-4-(2-((5-fluoropyridin-2-yl)methyl)-2H-tetrazol-5-yl)-N-(2-hydroxyethyl)benzenesulfonamide]
The MIC of the first is higher: 0.6 to 1.88 µM (≈ 0.235 to 0.736 µg/mL) for the first, ≤ 0.04 µM for the second.
